In patent US20130202698A1 (NANJING SANHOME PHARMACEUTICAL CO., LTD., priority 2005, published 2013):
Like-named read-outs stand apart in the source and are kept apart here. Marks after values point to notes of the source that are not given here.

How the values were obtained:
[1] = Phase II clinical trial, oral tablets, departments of stomatology, adverse events; type: in vivo, human; conditions: human phase II, oral, stomatology
Method: (§1) Double-blinded randomized controlled trials were carried out to compare the adverse events of oral levo-ornidazole with racemate treatment groups. Two separate studies were conducted for patients with infections from either department of stomatology or obstetrics/gynecology.

[2] = Phase II clinical trial, oral tablets, departments of obstetrics/gynecology, adverse events; type: in vivo, human; conditions: human phase II, oral, obstetrics/gynecology
Method: as §1

trichomonas vaginalis = test: Pharmacodynamic study of trichomonas vaginalis infection in mice; type: in vivo; set-up: ED90: unit not given beside the values; conditions: for ED50: Trichomonas vaginalis; for ED90: dosage of 90% inhibition rate
Method: Male ICR mice were injected intraperitoneally with liquid containing 0.4 ml 3×10^6 trichomonas vaginalis (trichomonas vaginalis from clinical patients). The mice were randomly divided into 19 groups, each with 10. The mice in solvent control group were given blank solutions by tail vein injection. The treatment groups were injected intravenously at 2, 24, 48, and 72 hours after infection with active drugs. The animals were killed five days after infection. Washing offal, fluid was centrifuged, and microscopically examined for life larvae. Autopsy was performed to determine whether there was any visceral and abdominal abscess, microscopic examination was conducted to determine the number of live trichomoniasis in the abscess. […] The abscess formation was inhibited in the treatment groups[…] and the number of live trichomoniasis was reduced. Calculate the dosage of 50% (ED50) and 90% (ED90) inhibition rate.

Beagle dogs = test system: Beagle dogs
Method: In the studies, male and female Beagle dogs were treated at high doses of ornidazole enantiomers for 2 weeks, and then sacrificed for anatomical and pathological examinations. […] All the doses were administered in the levo- and racemate groups.

righting reflex = test: Hypnotic effect, loss of righting reflex; type: in vivo, mice
Method: Thirty minutes after drug administration, the number of animals losing righting reflex (LORR) was recorded. […] Sodium pentobarbital was used at […] as the positive control.

amoeba dysentery = test: Pharmacodynamic study of cecum amoeba infection in mice; type: in vivo; conditions: male ICR mice infected in the cecum, drug i.v. at 24, 48, 72 hours; for ED50: Mus musculus, iv, dosage of 50% inhibition rate; for ED90: dosage of 90% inhibition rate
Method: Male ICR mice were injected with liquid containing about 200,000 units of amoeba dysentery in the cecum. The mice were randomly divided into 19 groups, each with 10. The mice in solvent control group were given blank solutions by tail vein injection. The treatment groups were injected intravenously at 24, 48, 72 hours after infection with active drugs. The animals were killed six days after infection. Intestinal mucosal biopsies were done, and comparative studies of different stages of the amoeba were studied under microscope. […] Calculated the dosage of 50% (ED50) and 90% (ED90) inhibition rate.

[3] = test system: motor balance and coordination; conditions: both, mouse, in vivo
[4] = rat, in vivo
[5] = male ICR mice infected intraperitoneally, drug i.v. at 2, 24, 48, 72 hours

Cc1ncc([N+](=O)[O-])n1CC(O)CCl (racemic) [Racemic ornidazole, 1-(3-Chloro-2-hydroxypropyl)-2-methyl-5-nitroimidazole]
Bloating, # of Patients with AE [1]: 1
Bloating, Incidence (%) [1]: 0.71%
Constipation, # of Patients with AE [1]: 0
Constipation, Incidence (%) [1]: 0.00%
Drowsy, # of Patients with AE [1]: 3
Drowsy, Incidence (%) [1]: 2.13%
Dry mouth, # of Patients with AE [1]: 1
Dry mouth, Incidence (%) [1]: 0.71%
Headache, # of Patients with AE [1]: 1
Headache, Incidence (%) [1]: 0.71%
Hypersomnia, # of Patients with AE [1]: 6
Hypersomnia, Incidence (%) [1]: 4.26%
Hypodynamia, # of Patients with AE [1]: 1
Hypodynamia, Incidence (%) [1]: 0.71%
Loss of appetite, # of Patients with AE [1]: 1
Loss of appetite, Incidence (%) [1]: 0.71%
Nausea, # of Patients with AE [1]: 4
Nausea, Incidence (%) [1]: 2.84%
Palpitation, # of Patients with AE [1]: 1
Palpitation, Incidence (%) [1]: 0.71%
Pruritus, # of Patients with AE [1]: 1
Pruritus, Incidence (%) [1]: 0.71%
Rash, # of Patients with AE [1]: 2
Rash, Incidence (%) [1]: 1.42%
Sourregurgitation, # of Patients with AE [1]: 1
Sourregurgitation, Incidence (%) [1]: 0.71%
Stomach discomfort, # of Patients with AE [1]: 7
Stomach discomfort, Incidence (%) [1]: 4.96%
Stupor, # of Patients with AE [1]: 1
Stupor, Incidence (%) [1]: 0.71%
Total incidence rate of adverse events [1]: 17.73%
Vertigo, # of Patients with AE [1]: 2
Vertigo, Incidence (%) [1]: 1.42%
Vomiting, # of Patients with AE [1]: 1
Vomiting, Incidence (%) [1]: 0.71%
Patients with adverse events (total) ([1]; out of 139 (levo) / 141 (racemate) patients): 25 patients
Abdominal pain, # of Patients with AE [2]: 1
Abdominal pain, Incidence (%) [2]: 0.70%
Appetite drop, # of Patients with AE [2]: 2
Appetite drop, Incidence (%) [2]: 1.41%
Bitter taste, # of Patients with AE [2]: 1
Bitter taste, Incidence (%) [2]: 0.70%
Bloating, # of Patients with AE [2]: 3
Bloating, Incidence (%) [2]: 2.11%
Blurred vision, # of Patients with AE [2]: 1
Blurred vision, Incidence (%) [2]: 0.70%
Breast tenderness, # of Patients with AE [2]: 1
Breast tenderness, Incidence (%) [2]: 0.70%
Chest tightness, # of Patients with AE [2]: 2
Chest tightness, Incidence (%) [2]: 1.41%
Dazzle, # of Patients with AE [2]: 1
Dazzle, Incidence (%) [2]: 0.70%
Diarrhea, # of Patients with AE [2]: 1
Diarrhea, Incidence (%) [2]: 0.70%
Dizziness, # of Patients with AE [2]: 4
Dizziness, Incidence (%) [2]: 2.82%
Dry mouth, # of Patients with AE [2]: 1
Dry mouth, Incidence (%) [2]: 0.70%
Headache, # of Patients with AE [2]: 1
Headache, Incidence (%) [2]: 0.70%
Hypersomnia, # of Patients with AE [2]: 8
Hypersomnia, Incidence (%) [2]: 5.63%
Hypodynamia, # of Patients with AE [2]: 2
Hypodynamia, Incidence (%) [2]: 1.41%
Nausea, # of Patients with AE [2]: 7
Nausea, Incidence (%) [2]: 4.93%
Oral malodor, # of Patients with AE [2]: 0
Oral malodor, Incidence (%) [2]: 0.00%
Rash, # of Patients with AE [2]: 0
Rash, Incidence (%) [2]: 0.00%
Stomach ache, # of Patients with AE [2]: 0
Stomach ache, Incidence (%) [2]: 0.00%
Stomach discomfort, # of Patients with AE [2]: 4
Stomach discomfort, Incidence (%) [2]: 2.82%
Total incidence rate of adverse events [2]: 19.72%
Vertigo, # of Patients with AE [2]: 8
Vertigo, Incidence (%) [2]: 5.63%
Vomiting, # of Patients with AE [2]: 1
Vomiting, Incidence (%) [2]: 0.70%
Patients with adverse events (total) ([2]; out of 143 (levo) / 142 (racemate) patients): 28 patients
ED50 (trichomonas vaginalis; 72 h): 11.3 mg/kg
ED90 (trichomonas vaginalis; [5]): 43.8
Toxicity Severity (Beagle dogs; Beagle dogs, I.V. 200 mg/kg for 2 weeks): Moderate
Number of animals Loss of Righting Flex 30 min Post-dose (righting reflex; mice, 40 mg/kg, 10 animals): 0
Number of animals Loss of Righting Flex 30 min Post-dose (righting reflex; mice, 80 mg/kg, 10 animals): 0
Number of animals Loss of Righting Flex 30 min Post-dose (righting reflex; mice, 160 mg/kg, 10 animals, listed as Racemate): 6*^#
Number of animals Loss of Righting Flex 30 min Post-dose (righting reflex; mice, 160 mg/kg, 10 animals, listed as racemate): 6
ED50 (amoeba dysentery): 11.4 mg/kg
ED90 (amoeba dysentery): 55.2

Cc1ncc([N+](=O)[O-])n1C[C@@H](O)CCl [D-ornidazole, R-(+)-ornidazole]
Number of Animals Fall Off ([3]; 40 mg/kg, 0.5 h): 0
Number of Animals Fall Off ([3]; 40 mg/kg, 1 h): 1
Number of Animals Fall Off ([3]; 40 mg/kg, 2 h): 2
Number of Animals Fall Off ([3]; 40 mg/kg, 3 h): 3
Number of Animals Fall Off ([3]; 40 mg/kg, 4 h): 0
Number of Animals Fall Off ([3]; 80 mg/kg, 0.5 h): 3
Number of Animals Fall Off ([3]; 80 mg/kg, 1 h): 3
Number of Animals Fall Off ([3]; 80 mg/kg, 2 h): 2
Number of Animals Fall Off ([3]; 80 mg/kg, 3 h): 1
Number of Animals Fall Off ([3]; 80 mg/kg, 4 h): 0
Number of Animals Fall Off ([3]; 160 mg/kg, 0.5 h): 10##
Number of Animals Fall Off ([3]; 160 mg/kg, 1 h): 10##
Number of Animals Fall Off ([3]; 160 mg/kg, 2 h): 10##
Number of Animals Fall Off ([3]; 160 mg/kg, 3 h): 10##
Number of Animals Fall Off ([3]; 160 mg/kg, 4 h): 9##
Distribution in different region of brain, levo- vs dextro-ornidazole [4]: Similar
ED50 (trichomonas vaginalis; male ICR mice infected intraperitoneally, drug i.v. at 2, 24, 48, 72 hours, dosage of 50% inhibition rate, read-out: ED50): 14.1 mg/kg
ED90 (trichomonas vaginalis; [5]): 54.5
Toxicity Severity (Beagle dogs; dog, in vivo, iv, 200 mg/kg): Severe
Number of animals Loss of Righting Flex 30 min Post-dose (righting reflex; both, mouse, in vivo, 40 mg/kg, 30 min): 0
Number of animals Loss of Righting Flex 30 min Post-dose (righting reflex; both, mouse, in vivo, 80 mg/kg, 30 min): 0
ED50 (amoeba dysentery): 13.3 mg/kg
ED90 (amoeba dysentery): 64.4
